Patent US9993516B2, “Treatment of left ventricular non-compaction and dilated cardiomyopathy by inhibiting melanocortin receptor four” (THE BRIGHAM AND WOMEN'S HOSPITAL, INC., priority 2013, dated 2018)

Assays:
[1] = system: PRDM16 morphant knockdown embryos and truncation mutant (p.K702X) transgenics; assay: Cardiac function (cardiac output) by video microscopy in PRDM16 morphant and truncation mutant zebrafish embryos, rescue experiments; assay type: in vivo; conditions: for rescue of reduced cardiac output (contractile impairment): injected into yolk sac at one-cell stage, MCL0020, HS014, SU9119 1 μM, JKC363 2 μM, HS024 200 nM, THIQ 1 μM and 500 μM
Method: Morpholinos directed against the translation start codon were 5'-[…] NO: 7) for prdm16 (Gene Tools (Philomath, Oreg.)) and were injected at the one cell stage. Concentrations of 0.2 mM were used. For cardiac-specific overexpression experiments the human PRDM16 truncation mutation ([…]) and the human PRDM16 wildtype were cloned downstream of the cmlc2 promoter into the Tol2kit expression system using Gateway technology (Invitrogen). PRDM16 constructs (15 ng/μl) were co-injected with 10 ng/μl capped Tol2 transposase mRNA into one-cell-stage zebrafish embryos.

[2] = system: PRDM16 mutant model as well as wildtype fish; assay: Tail necrosis on norepinephrine incubation of zebrafish embryos; assay type: in vivo; conditions: high doses of norepinephrine
Method: (§1) Working solutions of 10 nM, 100 nM or 1 μM were diluted in 20 ml E3 water and zebrafish embryos were incubated directly after birth. Cardiac function was assessed at 48 hpf as described below.

[3] = system: PRDM16 morphant and truncation mutant hearts; assay: Cardiomyocyte proliferation (PCNA staining) in isolated hearts of PRDM16 morphant/mutant zebrafish; assay type: in vivo; conditions: hearts at 48 hpf
Method: For proliferation detection hearts from 48 hpf old zebrafish embryos were isolated and fixed in Prefer fixative (Anatech). The fixed hearts were stained with the primary antibodies rabbit anti-PCNA 1:200 (Abcam) and mouse anti-MF20 1:100 (DSHB), and the secondary antibodies donkey or goat anti-rabbit or mouse Alexa 488 or 546 conjugated (Invitrogen) 1:1,000. Hearts were mounted with ProLong Antifade reagent with DAPI mounting medium on a slide. Confocal images were analyzed using IMAGEJ.

PRDM16 mutants = assay: Apoptosis (TUNEL assay) in isolated hearts of PRDM16 mutant zebrafish; assay type: in vivo; conditions: hearts at 48 hpf
Method: For detection of apoptosis hearts from 48 hpf old zebrafish embryos were isolated and fixed in 4% PFA/PBS for 30 min and washed twice in PBS-T for 30 min. TUNEL assay was performed by using the in situ cell detection kit from Roche. Hearts were mounted with ProLong Antifade reagent with DAPI on a slide and confocal images were analyzed using IMAGEJ.

[4] = system: PRDM16 morphant and mutant hearts; assay: Intercellular coupling / conduction velocity by optical mapping of isolated zebrafish embryo hearts; assay type: in vivo
Method: Intercellular coupling parameters in zebrafish embryo hearts were measured using previously reported techniques. Briefly, hearts were isolated from zebrafish embryos, stained with the transmembrane-potential-sensitive dye di-8-ANEPPS (Invitrogen) and placed into a perfusion chamber that was mounted onto the stage of an inverted microscope. Excitation light from a high-intensity Hg arc lamp was transmitted through a 525/50-nm bandpass filter and reflected onto the preparation via a 565-nm dichroic mirror. Fluorescence emission was filtered by a 685/80-nm bandpass filter and recorded at a rate of 2000 s^-1 by a high-speed CCD camera (CardioCCD-[…]). Single-pixel action potentials were extracted from the fluorescence data and conduction velocities were estimated using an established algorithm. Experiments were repeated at least 2 times with 5 animals. Immunofluorescence, Detection of Apotosis and Mitochondrial Assessment

[5] = system: healthy wildtype zebrafish embryos
Method: MC4 receptor antagonists and agonists were dissolved in 100% DMSO to a stock concentration of 1 mM. Working solutions were diluted in nuclease free water. The concentrations for MCL0020, HS014, SU9119 were 1 μM, for JKC363 2 μM, HS024 200 nM and for the MC4 receptor agonist THIQ 1 μM and 500 μM.
as §1
For analysis of cardiac function embryos were laterally positioned and allowed to acclimate at 24° C. Video microscopy was performed on an Axioplan (Zeiss) upright microscope with a FastCam-PCI high-Speed digital camera (Photron) on top. 1088 frames were digitally captured at identical frame rates (250 frames per second) and magnification (5×). Sequential images were analyzed for heart rate and cardiac output using IMAGEJ and Excel. Experiments were repeated at least 3 times on each occasion using 10 animals.

NC[C@H](O)c1ccc(O)c(O)c1 [norepinephrine]
rescue of contractile dysfunction ([1]; PRDM16 mutant model, norepinephrine doses of 10 nM up to 1 μM, incubation in E3 water, 48 hpf): able to rescue
necrosis of the tail [2]: necrosis of the tail

HS024
rescue of reduced cardiac output (contractile impairment) [1]: efficiently rescued
decreased cardiomyocyte proliferation (percentage of PCNA positive cells) [3]: prevented or reduced
increased apoptosis (PRDM16 mutants): restored
disrupted coupling of cells (reduction in impulse propagation velocities) [4]: rescued

O=C(N[C@H](Cc1ccc(Cl)cc1)C(=O)N1CCC(Cn2cncn2)(C2CCCCC2)CC1)[C@H]1Cc2ccccc2CN1 [THIQ]
rescue of reduced cardiac output (contractile impairment) [1]: not able to rescue
cardiac output in wildtype embryos ([5]; THIQ 1 μM and 500 μM): decreases cardiac output
heart rate ([5]; THIQ, FIGS. 8A and 8B, fish group not given): not altered
